Read-outs that look alike come from different tables or passages of the source. Ends that are not written are not given here.
Key:
[1] = tested on: adhesion of B16-BL6 melanoma cells to fibronectin; test: Inhibition of B16-BL6 cell adhesion to fibronectin-coated substrate by peptides present during culture; assay type: cell-based, mouse; conditions: for Adhesiveness adhered cell No./substrate (SD) / Percentage in parentheses (inhibition of adhesion to fibronectin): fibronectin coating
Protocol: First, microculture wells were preliminarily coated with 20 μg/ml of the polypeptide to be examined or 5 μg/ml of mouse fibronectin (obtained from Seikagaku Kogyo, Japan) which was used as a positive control. Next 0.05 ml/well of B16-BL6 melamona cells (2×10^4) labeled with a radioactive iodide [^125 I]IUdR was added thereto and the cells were cultured at 37° C. for 20 minutes. The number of cells thus adsorbed by the culture wells was determined by measuring the radioactivity. 1% bovine serum albumin (BSA) was employed as a negative control. The B16-BL6 melanoma cells were labeled by culturing the cells to be labeled at the logarithmic growth phase for 24 hours in an MEM medium containing 5% of FBS and 0.3 μCi/ml of [^125 I]IUdR (200 mCi/mmol; obtained from New England Nuclear, Boston, Mass., USA).
The labeled cells were washed with physiological saline solution twice and suspended in 0.02% EDTA for 1 minute. Subsequently the cells were collected and suspended in a serum-free MEM medium. The cell suspension thus obtained was used in the above examination. The unadsorbed cells in the well were washed away with PBS 4 times. Then the cells adsorbed by the well were dissolved in 0.1 ml of 0.1N NaOH. The number of adsorbed cells was determined by measuring the radioactivity of the dissolved cells.

[2] = tested on: B16-BL6 melanoma cells; test: Experimental metastasis to lung induced by intravenously injecting B16-BL6 melanoma cells; assay type: in vivo, C57BL/6 mice; conditions: for Antimetastatic effect on metastasis to lungs (in words): 500 μg mixed with cells, i.v.; for Antimetastatic effect compared with the control group (in words): 1,000 μg mixed with cells; for No. of instances of metastasis to lung mean ± SD: B16-BL6
[3] = tested on: adhesion of B16-BL6 melanoma cells to fibronectin; test: Inhibition of B16-BL6 cell adhesion to fibronectin-coated substrate by peptides present during culture; assay type: cell-based, mouse
[4] = tested on: B16-BL6 melanoma cells; conditions: for Metastasis of the cancer to the lungs (in words): 100 μg on 1st or 7th day single dose or 50 μg on 7th, 10th, 13th, 16th days, random polypeptide 100 μg on 7th day
Excerpt: Furthermore, the antimetastatic effect of the compound of the present invention on a spontaneous metastasis model was examined. Namely, B16-BL6 cells were transplanted into the foot pads of C57BL/mice (each group having five animals). […] The transplanted cancer was removed on the 21st day and the mouse was anatomized 2 weeks later to examine the metastasis of the cancer into the lungs.

[5] = tested on: mouse B16-BL6 melanoma cells; test: Adhesion of B16-BL6 melanoma cells to substrate coated with polypeptide or fibronectin; assay type: cell-based; conditions: 37° C., 20 minutes; for Adhesiveness adhered cell No./substrate (SD): wells coated with 20 μg/ml polypeptide, 5 μg/ml fibronectin or 1% BSA, 2×10^4 cells
Excerpt: The adhesiveness to target cells of the compound of the present invention was examined in accordance with a method reported by Saiki et al. […] Namely, a polypeptide of the present invention having a structure of ([…] and a molecular weight of approximately 5,000 prepared in the following Synthetic Example 1 and a comparative polypeptide, ([…], carrying a random sequence of the corresponding amino acids Arg, Gly and Asp and having a molecular weight of approximately 5,000 prepared in the following Synthetic Example 3 were employed. The adhesiveness of each compound was examined by using mouse B16-Bl6 melanoma cells as the target. First, microculture wells were preliminarily coated with 20 μg/ml of the polypeptide to be examined or 5 μg/ml of mouse fibronectin (obtained from Seikagaku Kogyo, Japan) which was used as a positive control. Next 0.05 ml/well of B16-BL6 melamona cells (2×10^4) labeled with a radioactive iodide [^125 I]IUdR was added thereto and the cells were cultured at 37° C. for 20 minutes. […] Subsequently the cells were collected and suspended in a serum-free MEM medium. The cell suspension thus obtained was used in the above examination. The unadsorbed cells in the well were washed away with PBS 4 times. Then the cells adsorbed by the well were dissolved in 0.1 ml of 0.1N NaOH. The number of adsorbed cells was determined by measuring the radioactivity of the dissolved cells.

[6] = tested on: platelet aggregation induced by B16-BL6 melanoma cells; conditions: 100 μg/ml added to heparinized PRP 7 minutes before the cells; FIGS. 2 and 3
Protocol: The blood of a C57BL/6 mouse was centrifuged at 160×g for 15 minutes to give platelet rich plasma (PRP). As a control, platelet poor plasma (PPP) obtained by centrifuging the blood at 1,000×g for 10 minutes was employed. […] After preincubation for 5 to 7 minutes, the mixture was added to a suspension of B16-BL6 cells in physiological saline (approximately 10^6 /ml) and stirred at 37° C. at 1,000 rpm. During this period, the aggregation of the platelets was monitored with a dual aggregometer (Model 440; Chrono-Log, USA). […] FIGS. 1 to 3 together show the results.

[7] = tested on: Lewis lung cancer cells (3 LL); test: Experimental metastasis to lung induced by injecting Lewis lung cancer cells (3LL); assay type: in vivo, C57BL/6 mice; conditions: for No. of instances of metastasis to lung mean ± SD: 3LL
Protocol: Namely, portions of 2, 20 and 100 μg of the above compound were each mixed with 3×10^4 Lewis lung cancer cells (3 LL) and administered to a group of C57BL/6 mice in the same manner as the one described in the above (b). Thus the antimetastatic effect of this compound was examined.

[8] = tested on: B16-BL6 melanoma cells; test: Distribution and retention of [125I]IUdR-labeled B16-BL6 melanoma cells in organs
Protocol: B16-BL6 cells at the logarithmic growth phase were labeled with [^125 I]IUdR. […] The liver, kidneys, spleen and lungs of each animal were removed 30 minutes or 24 hours after the administration and the radioactivity in these organs was determined. Mice which received PBS were used as control animals.

[9] = tested on: erythrocytes, spleen and thymus cells
[10] = incubated with 100 μg/ml peptide
[11] = incubated with 500 μg/ml peptide
[12] = Test 1, simultaneous (mixed with 5×10^4 cells, i.v.), 500 μg, colonies counted after 14 days
[13] = 100 μg/animal, administration date 7
[14] = 100 μg/animal, administration date 14
[15] = 100 μg/animal, administration date 20
[16] = 50 × 4 μg/animal, administration dates 7, 10, 13, 16
[17] = 500 μg/mouse with labeled cells i.v.

Cl.N=C(N)NCCC[C@H](N)C(=O)NCC(=O)N[C@@H](CC(=O)O)C(=O)O [Arg-Gly-Asp, L-arginylglycylaspartate hydrochloride, reference compound]
Inhibition of adhesion of fibronectin to cells (in words) ([1]; 100 or 500 μg/ml peptide (His-Gly-Gly 500 μg/ml), hydrochloride): dose-dependently inhibited
Adhesiveness adhered cell No./substrate (SD) [1, 10]: 5320 ± 52 adhered cell No./substrate
Adhesiveness adhered cell No./substrate (SD) [1, 11]: 3708 ± 265 adhered cell No./substrate
Percentage in parentheses (inhibition of adhesion to fibronectin) [1, 11]: 37%
Amount needed relative to that of the polypeptide compound of the invention ([2]; Test 1): approximately 6 times
Antimetastatic effect on metastasis to lungs (in words) ([2]; Test 1): no such antimetastatic effect
Metastasis to lung mean ± SD [2, 12]: 46 ± 14
Metastasis to lung mean ± SD ([2]; Test 1, simultaneous, 3000 μg, 14 days): 18 ± 24
Amount needed to achieve an antimetastatic effect comparable to that of Poly(Arg-Gly-Asp) ([2]; Test 1, versus 500 μg Poly(Arg-Gly-Asp)): 3,000 μg

O=C(O)CN(CCN(CC(=O)O)CC(=O)O)CC(=O)O [EDTA, reference compound]
Inhibition of cell-adhesiveness of fibronectin (in words) ([3]; 5 mM): inhibited

Copoly(L-arginine hydrochloride, glycine, L-aspartic acid) [Poly(Arg, Gly, Asp), reference compound]
Metastasis of the cancer to the lungs (in words) [4]: did not suppress
Number of metastatic cancer to lung (mm ± SD) [4, 13]: 158 ± 62 mm
Size of transplanted cancer (mm ± SD), observation on 21st day [4, 13]: 11 ± 3 mm
Antimetastatic effect on metastasis to lungs (in words) ([2]; Test 1): no such antimetastatic effect
Metastasis to lung mean ± SD [2, 12]: 65 ± 4
Adsorption of B16-BL6 melanoma cells to coated wells (in words) [5]: scarcely any adsorption
Adhesiveness adhered cell No./substrate (SD) [5]: 1750 ± 395 adhered cell No./substrate
Suppression of platelet aggregation induced by B16-BL6 cells (in words) [6]: scarcely any suppression capability

Fibronectin: mouse fibronectin (obtained from Seikagaku Kogyo, Japan) used as a positive control
Adsorption of B16-BL6 melanoma cells to coated wells (in words) [5]: accelerated the adsorption
Adhesiveness adhered cell No./substrate (SD) [5]: 5849 ± 513 adhered cell No./substrate

Poly(L-arginyl-glycyl-L-aspartic acid)hydrochloride [Poly(Arg-Gly-Asp)-1500]
Antimetastatic effect compared with the control group (in words) ([2]; Test 2): remarkable antimetastatic effect
Metastasis to lung mean ± SD ([2]; Test 2, simultaneous, 1000 μg): 14 ± 4

Poly(L-arginylglycyl-L-aspartate hydrochloride) [Poly(Arg-Gly-Asp)]
Metastasis of the cancer to the lungs (in words) [4]: remarkably reduced
Number of metastatic cancer to lung (mm ± SD) ([4]; 100 μg/animal, administration date 1): 24 ± 17 mm
Size of transplanted cancer (mm ± SD), observation on 21st day ([4]; 100 μg/animal, administration date 1, topical): 8 ± 4 mm
Number of metastatic cancer to lung (mm ± SD) [4, 13]: 29 ± 22 mm
Size of transplanted cancer (mm ± SD), observation on 21st day [4, 13]: 9 ± 3 mm
Number of metastatic cancer to lung (mm ± SD) [4, 14]: 120 ± 29 mm
Size of transplanted cancer (mm ± SD), observation on 21st day [4, 14]: 10 ± 4 mm
Number of metastatic cancer to lung (mm ± SD) [4, 15]: 131 ± 79 mm
Size of transplanted cancer (mm ± SD), observation on 21st day [4, 15]: 8 ± 3 mm
Number of metastatic cancer to lung (mm ± SD) [4, 16]: 26 ± 29 mm
Size of transplanted cancer (mm ± SD), observation on 21st day [4, 16]: 8 ± 3 mm
Growth of the transplanted cancer per se (in words) ([4]; same regimens): could not be suppressed
Inhibition of adhesion of fibronectin to cells (in words) ([3]; 100 or 500 μg/ml peptide (His-Gly-Gly 500 μg/ml)): inhibited
Percentage in parentheses (inhibition of adhesion to fibronectin) ([3]; fibronectin coating, incubated with 100 μg/ml peptide): 37%
Adhesiveness adhered cell No./substrate (SD) [1, 10]: 3687 ± 229 adhered cell No./substrate
Adhesiveness adhered cell No./substrate (SD) [1, 11]: 3715 ± 231 adhered cell No./substrate
Percentage in parentheses (inhibition of adhesion to fibronectin) [1, 11]: 36%
No. of instances of metastasis to lung mean ± SD ([7]; 500 μg/animal): 34 ± 7
Radioactivity in other organs including blood versus control (in words) ([8]; 500 μg/mouse): no significant difference
Radioactivity of the lungs versus control group (in words) ([8]; 500 μg/mouse): markedly lower
Radioactivity (cpm ± SD), Lung ([8]; 500 μg/mouse with 2×10^4 labeled cells i.v., average of 3 animals): 1121 ± 281 cpm
Radioactivity (cpm ± SD), Blood (1 ml) [8, 17]: 304 ± 94 cpm
Radioactivity (cpm ± SD), Kidney [8, 17]: 73 ± 19 cpm
Radioactivity (cpm ± SD), Liver [8, 17]: 195 ± 42 cpm
Radioactivity (cpm ± SD), Spleen [8, 17]: 59 ± 7 cpm
Percentage relative to the administered radioactivity, Lung ([8]; administered 15308 ± 1605 cpm/2 × 10^4 cells): 7.3%
Percentage relative to the administered radioactivity, Blood (1 ml) ([8]; mouse, in vivo): 2.0%
Percentage relative to the administered radioactivity, Kidney ([8]; mouse, in vivo): 0.5%
Percentage relative to the administered radioactivity, Liver ([8]; mouse, in vivo): 1.3%
Percentage relative to the administered radioactivity, Spleen ([8]; mouse, in vivo): 0.4%
Antimetastatic effect on metastasis to lungs (in words) ([2]; Test 1): remarkably inhibited
Metastasis to lung mean ± SD [2, 12]: 23 ± 3
Antimetastatic effect compared with the control group (in words) ([2]; Test 2): remarkable antimetastatic effect
Metastasis to lung mean ± SD ([2]; Test 2, separate (i.v. 5 minutes after the cells), 1000 μg): 16 ± 4
Metastasis to lung mean ± SD ([2]; Test 2, simultaneous, 1000 μg): 6 ± 4
Antimetastatic effect (in words) ([2]; not mixed, i.v. to mice given B16-BL6 cells 5 minutes before): high antimetastatic effect
Adsorption of B16-BL6 melanoma cells to coated wells (in words) [5]: accelerated the adsorption
Adhesiveness adhered cell No./substrate (SD) [5]: 7967 ± 910 adhered cell No./substrate
Suppression of platelet aggregation induced by B16-BL6 cells (in words) [6]: completely suppressed

Poly(Tyr-Ile-Gly-Ser-Arg)HCl (YIGSR; not fully specified; printed as Poly(Tyr-Ile-Gly-Ser-Arg)HCl; also: HCl salt)
No. of instances of metastasis to lung mean ± SD ([7]; 100 μg/animal): 14 ± 11
Antimetastatic activity relative to the original pentapeptide ([7]; mouse, in vivo): ~10 times
Antimetastatic effect on metastasis to the lungs (in words) ([7]; polypeptide 2, 20 and 100 μg, pentapeptide 100 μg, mixed with cancer cells): remarkably inhibited
No. of instances of metastasis to lung mean ± SD ([2]; 5 μg/animal): 81 ± 9
No. of instances of metastasis to lung mean ± SD ([2]; 20 μg/animal): 43 ± 13
No. of instances of metastasis to lung mean ± SD ([2]; 100 μg/animal): 19 ± 9
Cytotoxicity on erythrocytes, spleen and thymus cells [9]: neither any cytotoxicity

From patent US5236903A, “Polypeptide comprising repeated cell-adhesive core sequences” (Azuma; Ichiro, priority 1988, dated 1993)
